Reference: ChEMBL document CHEMBL4622875, “(3,3″)-Linked Biflavanones from Ouratea spectabilis and Their Effects on the Release of Proinflammatory Cytokines in THP-1 Cells” (J Nat Prod, 2020)
The source made the active and inactive calls. The rule behind the calls is not given here.

Tested on: THP-1
Assay: Antiinflammatory activity in human THP1 cells assessed as reduction in LPS-induced CCL2 secretion preincubated for 3 hrs followed by LPS stimulation and measured after 18 hrs by ELISA
Type: functional, cell-based
Settings: not given

Row | Structure (SMILES) | IC50 [µM]
1 | COc1cc(O)c2c(c1)O[C@H](c1ccc(O)cc1)[C@@H]([C@H]1C(=O)c3c(O)cc(OC)cc3O[C@@H]1c1ccc(O)cc1)C2=O | 3.1

Tested on: not listed separately
Assay: Cytotoxicity against human THP1 cells assessed as cell viability at 10 to 90 uM incubated for 18 hrs by sulforhodamine B assay relative to control
Type: cell-based
Settings: THP-1 cells, read-out: Activity

Row | Structure (SMILES) | viability at 18 h, up to 90 µM [%]
2 | COc1cc(O)c2c(c1)O[C@H](c1ccc(O)cc1)[C@@H]([C@H]1C(=O)c3c(O)cc(O)cc3O[C@@H]1c1ccc(O)cc1)C2=O | > 90
3 | O=C1c2c(O)cc(O)cc2O[C@H](c2ccc(O)cc2)[C@@H]1[C@@H]1C(=O)c2c(O)cc(O)cc2O[C@@H]1c1ccc(O)cc1 [NEOCHAMAEJASMIN A] | > 90
4 | COc1cc(O)c2c(c1)O[C@H](c1ccc(O)cc1)[C@@H]([C@H]1C(=O)c3c(O)cc(OC)cc3O[C@@H]1c1ccc(O)cc1)C2=O | > 90
5 | COc1cc(O)c2c(c1)O[C@H](c1ccc(O)cc1)[C@H]([C@@H]1C(=O)c3c(O)cc(OC)cc3O[C@@H]1c1ccc(O)cc1)C2=O | > 90

Tested on: THP-1
Assay: Antiinflammatory activity in human THP1 cells assessed as reduction in LPS-induced IL-1beta secretion at 10 to 90 uM preincubated for 3 hrs followed by LPS stimulation and measured after 18 hrs by ELISA
Type: functional, cell-based
Settings: not given

Row | Structure (SMILES) | Activity
6 | COc1cc(O)c2c(c1)O[C@H](c1ccc(O)cc1)[C@@H]([C@H]1C(=O)c3c(O)cc(O)cc3O[C@@H]1c1ccc(O)cc1)C2=O | inactive
7 | O=C1c2c(O)cc(O)cc2O[C@H](c2ccc(O)cc2)[C@@H]1[C@@H]1C(=O)c2c(O)cc(O)cc2O[C@@H]1c1ccc(O)cc1 [NEOCHAMAEJASMIN A] | inactive
8 | COc1cc(O)c2c(c1)O[C@H](c1ccc(O)cc1)[C@@H]([C@H]1C(=O)c3c(O)cc(OC)cc3O[C@@H]1c1ccc(O)cc1)C2=O | inactive
9 | COc1cc(O)c2c(c1)O[C@H](c1ccc(O)cc1)[C@H]([C@@H]1C(=O)c3c(O)cc(OC)cc3O[C@@H]1c1ccc(O)cc1)C2=O | inactive

Tested on: THP-1
Assay: Antiinflammatory activity in human THP1 cells assessed as reduction in LPS-induced TNF secretion at 10 to 90 uM preincubated for 3 hrs followed by LPS stimulation and measured after 18 hrs by ELISA
Type: functional, cell-based
Settings: not given

Row | Structure (SMILES) | Activity
10 | COc1cc(O)c2c(c1)O[C@H](c1ccc(O)cc1)[C@@H]([C@H]1C(=O)c3c(O)cc(O)cc3O[C@@H]1c1ccc(O)cc1)C2=O | inactive
11 | O=C1c2c(O)cc(O)cc2O[C@H](c2ccc(O)cc2)[C@@H]1[C@@H]1C(=O)c2c(O)cc(O)cc2O[C@@H]1c1ccc(O)cc1 [NEOCHAMAEJASMIN A] | inactive
12 | COc1cc(O)c2c(c1)O[C@H](c1ccc(O)cc1)[C@@H]([C@H]1C(=O)c3c(O)cc(OC)cc3O[C@@H]1c1ccc(O)cc1)C2=O | inactive
13 | COc1cc(O)c2c(c1)O[C@H](c1ccc(O)cc1)[C@H]([C@@H]1C(=O)c3c(O)cc(OC)cc3O[C@@H]1c1ccc(O)cc1)C2=O | inactive
